Assay results: US12693289B2, “Application of compounds in the preparation of reagents for down-regulation of RUNX2” (Geneheal Biotechnology Co., Ltd., priority 2020, dated 2026)

Key:
RUNX2 [1] = assay: Computational studies and preliminary experimental studies of related disease models: Runx2 expression; conditions: general statement
RUNX2 mRNA [2] = assay: Animal testing (intraperitoneal injection): RUNX2 mRNA in mouse liver tissue by qPCR; type: in vivo, C57BL/6 male mice; conditions: mice, 40 mg/kg intraperitoneal injection, 4 consecutive days, liver collected 48 hours after last injection, FIG. 6
Procedure: • Drug: Fostamatinib MCE(HY-13038A) • Mice: 8-week-old C57BL/6 male mice • Concentration of administration: 40 mg/kg • Mode of administration: intraperitoneal injection
Experimental steps: mice are randomly divided into two groups, experimental group (fostamatinib) and control group (mock), before daily experiments, a certain amount of fostamatinib is accurately weighted and dissolve in 0.5% CMC ([…] cellulose), fully pipetted into a uniform suspension, the concentration of 4 mg/ml, and ready for use. According to the injection volume of 100 ul/10 g per mouse, the intraperitoneal injection was carried out for 4 consecutive days. The mouse liver tissue was collected 48 hours after the last injection, RNA was extracted, and the mRNA expression level of RUNX2 was detected by real-time fluorescence quantitative PCR (qPCR).

RUNX2 [3] = assay: RUNX2 protein expression by Western blot in lung cancer cell H1299; type: cell-based; conditions: H1299 cells
Procedure: (§1) Cells are seeded in medium dishes (6 cm), cultured overnight, when the cell confluency is 80%, the original medium is discarded, PBS rinses the cells, and then replaced with Fostamatinib containing a final concentration of 10 uM or other concentrations, after 6-12 hours, the cells are harvested, RNA and protein liquid are extracted, and the protein and mRNA expression changes of RUNX2 are detected by Western blot and qPCR experiments, respectively.

RUNX2 mRNA [4] = assay: RUNX2 mRNA expression by qPCR in lung cancer cells A549; type: cell-based
Procedure: as §1

RUNX2 [5] = assay: RUNX2 protein expression by Western blot in lung cancer cells A549; type: cell-based
Procedure: as §1

RUNX2 [6] = assay: RUNX2 protein expression by Western blot in hepatoma cells BEL-7402; type: cell-based; conditions: BEL-7402 cells, 0, 2.5, 5 and 10 uM for 6 h, FIG. 5
Procedure: as §1

RUNX2 mRNA [7] = assay: RUNX2 mRNA expression by qPCR in lung cancer cell H1299; type: cell-based; conditions: H1299 cells
Procedure: as §1

[8] = treated 6 hours, antibody changed, FIG. 3
[9] = treated 8 hours, Fostamatinib 10 uM or other concentrations, FIG. 1
[10] = treated 8 hours, Fostamatinib 10 uM or other concentrations, FIG. 2

SMILES	expression of Runx2 (RUNX2 [1])	mRNA expression level of RUNX2 in liver tissue (RUNX2 mRNA [2])	protein expression level of RUNX2 (RUNX2 [3]; [8])	protein expression level of RUNX2 (RUNX2 [3]; [9])	mRNA level of RUNX2 (RUNX2 mRNA [4]; 6 hours, FIG. 4)	mRNA expression level of RUNX2 (RUNX2 mRNA [4]; [10])	protein expression level of RUNX2 (RUNX2 [5]; [8])	protein expression level of RUNX2 (RUNX2 [5]; [9])	expression level of RUNX2 protein (RUNX2 [6])	mRNA level of RUNX2 (RUNX2 mRNA [7]; 6 hours, FIG. 4)	mRNA expression level of RUNX2 (RUNX2 mRNA [7]; [10])
COc1cc(Nc2ncc(F)c(Nc3ccc4c(n3)N(COP(=O)(O)O)C(=O)C(C)(C)O4)n2)cc(OC)c1OC [Fostamatinib]	significantly down-regulate	significantly reduce	down-regulated a certain trend	tends to decrease	significantly reduced	decreases significantly	down-regulated a certain trend	tends to decrease	significantly reduced and dose-dependent	significantly reduced	decreases significantly
CNC(=O)c1cc(Oc2ccc(NC(=O)Nc3ccc(Cl)c(C(F)(F)F)c3)c(F)c2)ccn1 [Regorafenib]	significantly down-regulate										
COc1ccc2[nH]cc(CCNC(C)=O)c2c1 [melatonin, Melatonin]	significantly down-regulate										
